# Measured values taken from publication PMC10184116, “Liposomal Permeation Assay for Droplet-Scale Pharmacokinetic Screening” (Journal of Medicinal Chemistry, 2023).
# Starred links: 1 amine or outer side, 2 acyl side, 3 side chain; linkers in the order of their positions; H or OH if unused. Positions of bridges follow the written chain, without caps; N, C: chain ends. Non-standard residues stand in square brackets, D forms with d. Residues, ends and D or L forms follow the SMILES beside them. oXylylene = c1ccc(C[*:2])c(C[*:1])c1; Pra = C#CC[C@H](N)C(=O)O
# Experiments:
# Assay type in all cases: in vitro ADME
# [1] = Microplate fluorogenic CuAAC liposomal permeation assay (CF-N3-loaded SUVs); conditions: for Permeation in liposomal assay: reaction with liposomal CF-N3 (in words): real-time fluorogenic CuAAC
# Protocol: DOPC or DOPG (10 mg/mL, 500 μL) were pipetted into a scintillation vial (20 mL), or DOPC (10 mg/mL, 400 μL) and POPC (10 mg/mL, 100 μL) were pipetted into a scintillation vial (20 mL). Samples were dried under argon then evaporatively dried in a vacuum desiccator (16 h). Degassed PBS buffer was combined with CF-N3 probe (1, 4, or 20 μM final) and ascorbic acid (AA, 10 mM). Lipid film was resuspended using degassed probe/AA/PBS buffer solution (1 mL), and the vial was incubated on a hot plate (15 min, 37 °C) with gentle vortexing (every 5 min). Lipid suspension was sonicated (1 min, Branson 3510 DTH ultrasonic cleaner) followed by rest (1 min), repeating 9 additional times. Liposomes were generated by extrusion (11 passages, 100 nm polycarbonate membrane, Mini-Extruder, Avanti Polar Lipids). Liposome solution was loaded into dialysis cassettes (10K MWCO, 3 mL Slide-A-Lyzer) and incubated in PBS buffer (1 L, 16 h, 4 °C). Liposome size distributions and stability were analyzed by dynamic light scattering (DLS, Zetasizer Nano ZS, Malvern Panalytical, United Kingdom).
# The same protocol was followed to produce and characterize liposomes with other lipid compositions. DOPC (10 mg/mL, 400 μL), POPC (10 mg/mL, 100 μL), and cholesterol (5 mg/mL, 50/100 μL for 10%/20% mole of cholesterol, respectively) were combined, dried, and rehydrated with probe solution in scintillation vials. Brain polar lipid extract (25 mg/mL, 200 μL) or E. coli polar lipid extract (25 mg/mL, 200 μL) were dried and rehydrated with probe solution in scintillation vials.
# CuSO4 (4 mg) was dissolved in DI H2O (500 μL, 50 mM), L-ascorbic acid (8.8 mg) was dissolved in PBS (500 μL, 100 mM), TBTA (2.7 mg) was dissolved in DMSO (509 μL, 10 mM), and mPEG17/mPEG8/mPEG4/PEG4s/propargyl amine/Cyc1–4 stock solutions (50 mM, with the purity > 95% by HPLC analysis) were prepared in DMSO, and CF-N3 was dissolved in DMSO (2 mM). Fluorogenic CuAAC reaction premixture was prepared by combining CuSO4 (10 μL) and TBTA (8 μL) in PBS (982 μL). Alkyne analytes were diluted (0.1 mM in CuAAC reaction premixture +2% DMSO). Free probe solution was prepared with CF-N3 (4 μM) and L-ascorbic acid (10 mM) in PBS buffer. Alkyne analyte in CuAAC premixture (5 μL) or CuAAC premixture +2% DMSO (5 μL) blank sample was combined with liposome (5 μL) or free probe solution (5 μL) in microtiter plate wells (384-well, Greiner, Thermo Scientific). Transient assay fluorescence (λex/λem = 488/530 nm) was detected using a multimode plate reader (CLARIOstar, BMG). Fluorescence fold gain was calculated by dividing the sample fluorescence by blank fluorescence. Initial velocities (V0) were obtained by linear regression analysis of the fluorescence fold gain after the initial lag period.
# Assays were assembles as described above, combining liposomal probe (5 μL; 4 μ M CF-N3, 10 mM ascorbic acid, E. coli lipid SUV) with alkyne sample (5 μL) but with varying concentrations of mPEG4, mPEG8, mPEG17, and PEG4s (0.0001/0.001/0.005/0.01/0.05/0.1/0.5/1/5 mM) or Cyc1–4 (0.0001/0.001/0.005/0.01/0.05/0.1/0.5 mM). Broken liposomal V0 was obtained by combining liposomal probe (5 μL) with Triton X-100 solution (0.42 μL, 10% w/v), then adding the highest concentration sample for each alkyne (5 μL; 0.5 mM Cyc1–4 or 5 mM PEG samples). Transient assay fluorescence (λex/λem = 488/530 nm) was detected using a multimode plate reader (CLARIOstar). Each [alkyne] V0 was divided by the corresponding broken liposome maximum [alkyne] V0,broken. These normalized data were fit to a sigmoid to determine the [alkyne] at which V0/V0,broken was 50% maximum (PC50).
# [2] = Parallel artificial membrane permeability assay (PAMPA), egg lecithin in dodecane; conditions: for Permeability class of control alkynes: control alkynes' permeabilities measured previously (ref 38) or via PAMPA (SI Table S1)
# Protocol: A modified PAMPA was used for compound permeability measurements and was performed by Pharmaron. Briefly, alkyne stock solution (1 mM in DMSO) was diluted (50 μM final in PBS, pH 7.4). The lipid solution (1.8% w/v egg lecithin in dodecane, 5 μL spotting volume) was added to each acceptor well of the multiscreen-IP filter plate. PBS (300 μL) was added to all wells of the acceptor plate, and diluted alkyne stock (300 μL) was added to the wells of the donor plate in triplicate. The plate was assembled and incubated (16 h, 37 °C). An aliquot of donor well sample (2.5 μL) was diluted in PBS (47.5 μL), and an aliquot of the acceptor well (50 μL) was transferred to a 96-well analysis plate. Internal standard (100 nM alprazolam, 200 nM caffeine, 200 nM diclofenac in 100% MeOH) was added to all samples. Samples were vortexed and centrifuged (20 min, 3220g), then analyzed by LC-MS/MS.
# The effective permeability (Pe) was calculated as [drawing 1] 1 [drawing 2] 2 where VD is the donor compartment volume (0.3 mL), VA is the acceptor compartment volume (0.3 mL), A is the filter area (0.24 cm^2), and t is the time (16 h).
# [3] = Microfluidic droplet-scale liposomal permeation assay of photocleaved control beads; conditions: photocleaved from control beads on-chip by UV, E. coli polar lipid SUVs, 9% dextran
# Protocol: Microfluidic droplet-based screening was performed in a UV-free room as previously described.[37],[47] Briefly, perfluorous oil phase (Novec 7500) with stabilizer (4% Pico-Surf) was loaded into a syringe (1 mL, BD Tuberculin, BD Medical, Franklin Lakes, NJ) fitted with blunt-end needle (30 gauge QuantX, Fisnar, Germantown, WI) and connected to the microfluidic device OIL1 inlet via Tygon microbore tubing (0.01” I.D. × 0.03” O.D. × I.D., United States Plastic Corp.). Aqueous inputs (AQ1 and AQ2, see below) were loaded into the syringes and connected to AQ inlets of the microfluidic device. Novec 7500 was loaded into syringes (10 mL) and similarly connected to the device via Tygon microbore tubing as spacing oil (OIL2) and flow focusing oil (OIL3). The incubation channel was primed with Novec 7500 by filling from the OIL2 and OIL3 inputs before initiating flows from OIL1 and AQ inlets. OIL and AQ flows were driven by syringe pumps (Legato 101, KD Scientific, Holliston, MA): AQ1 (400 nL/min) AQ2 (400 nL/min), OIL1 (500 nL/min), OIL2 (16 μ L/min), and OIL3 (6 μL/min). […]
# Fluorescence data were acquired using a custom confocal laser-induced fluorescence detection system. Droplets were detected based on internal standard (cTMR) signal in PMT 2 as previously described.[36] CF-N3 probe fluorescence was detected in PMT 1. […] Once a droplet was detected, the average PMT 1 signal was calculated. […]
# [4] = multiple SUV lipid formulations
SMILES,"Permeation in liposomal permeation assay (in words) [1, 4]",Permeability class of control alkynes [2],also measured
"C#CCOCCOCCOCCOCCOCCOCCOCCOC [mPEG8, m-PEG8-propargyl]",readily permeated,–,–
"C#CCOCCOCCOCCOC [mPEG4, m-PEG4-propargyl]",readily permeated,–,–
"C#CCOCCOCCOCCOCCS(=O)(=O)O [PEG4s, propargyl-PEG4-sulfonic acid]",–,impermeable,–
"C#CCN [PPA, propargylamine]",–,permeable,Lag before reaching steady V0 in reaction with liposomal CF-N3 ([1]; CF-N3-loaded DOPC-POPC SUVs): ~10 min; Permeation in liposomal assay: reaction with liposomal CF-N3 (in words) ([1]; CF-N3-loaded DOPC-POPC SUVs): reacted
C#CC[C@H](NC(=O)[C@H](Cc1c[nH]cn1)NC(=O)[C@H](Cc1c[nH]c2ccccc12)NC(=O)[C@@H](NC(=O)[C@H](Cc1c[nH]cn1)NC(=O)[C@H](Cc1ccccc1)NC(=O)[C@H]1CSCc2ccccc2CSC[C@@H](NC(=O)[C@@H](N)C(C)C)C(=O)N[C@@H](CC(N)=O)C(=O)N[C@@H](C)C(=O)N1)[C@@H](C)CC)C(N)=O [DD5o] (H-V[dC]NA[dC]FHIWH[Pra]-NH2; linker 2-5 via oXylylene),–,–,"Permeation in liposomal permeation assay (in words) ([1]; DOPG vesicles, PPA and PEG4s as controls (SI Figure S5)): permeable"
"C#CCOCCOCCOCCOCCOCCOCCOCCOCCOCCOCCOCCOCCOCCOCCOCCOCCOC [mPEG17, propargyl-PEG17-methane]",largely impermeable,impermeable,"Permeation in liposomal assay: reaction with liposomal CF-N3 (in words) ([1]; CF-N3-loaded DOPC-POPC SUVs): undetectable; Papp at 16 h, 50 μM ([2]; egg lecithin PAMPA, 50 μM, PBS pH 7.4, 16 h, 37 °C, read-out: PAMPA Pe): > 0.004 ×10⁻⁶ cm/s"
"C#CCNC(=O)C(N)C(C)C (stereo not drawn) [PPA–V, valine-N-propargylamide]",–,–,Permeation in droplet-scale liposomal permeation assay (in words) [3]: permeable
